Values joined by “and” are separate entries in the source; they are usually repeats but may differ in a detail not shown here. Equal entries are not always repeated. Inconclusive results and toxic doses are left out.
Tested on: BDF1 mice, P388 leukemia ip, median survival T/C
Test: NCI In Vivo Anticancer Drug Screen. Data for tumor model P388 Leukemia (intraperitoneal) in B6D2F1 (BDF1) mice
Settings: endpoint: median survival time, higher = longer survival
Method in brief: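 Compound-treated tumour-bearing mice were compared with vehicle-treated controls. Survival was recorded, and the value is the treated-group measurement divided by the control-group measurement (T/C).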

[1] = dose: 100.0 mg/kg/injection, schedule: Q04DX003 (ip), vehicle: saline
[2] = dose: 200.0 mg/kg/injection, schedule: Q04DX003 (ip), vehicle: saline
[3] = dose: 400.0 mg/kg/injection, schedule: Q04DX003 (ip), vehicle: saline
[4] = dose: 100.0 mg/kg/injection, schedule: Q01DX009 (ip), vehicle: saline with Tween-80
[5] = dose: 400.0 mg/kg/injection, schedule: Q01DX009 (ip), vehicle: saline with Tween-80

For CCOc1ccc(Br)cc1/C=N/NS(=O)(=O)c1ccc(C)cc1, the T/C (dose: 100.0 mg/kg/injection, schedule: Q04DX003 (ip), vehicle: saline with Tween-80) was 109 % of control, the T/C (dose: 176.0 mg/kg/injection, schedule: Q04DX003 (ip), vehicle: saline with Tween-80) was 120 % of control and the T/C (dose: 200.0 mg/kg/injection, schedule: Q04DX003 (ip), vehicle: saline with Tween-80) was 109 % of control. The T/C (dose: 264.0 mg/kg/injection, schedule: Q04DX003 (ip), vehicle: saline with Tween-80) was 120 % of control and the T/C (dose: 400.0 mg/kg/injection, schedule: Q04DX003 (ip), vehicle: saline with Tween-80) was 120 % of control.
With O=C(O)c1ccc(C(=O)O)c(C(=O)O)c1.[NH-]C1CCCCC1[NH-].[Pt+2] the T/C (dose: 30.0 mg/kg/injection, schedule: Q01DX001 (ip), vehicle: sodium bicarbonate) was 164 % of control and the T/C (dose: 50.0 mg/kg/injection, schedule: Q01DX001 (ip), vehicle: sodium bicarbonate) was 162 % of control.
In the case of CC(=O)OC1CCC2(C)C(CC(=O)C(C)C2(O)CCc2ccoc2)C1(C)C (stereo unspecified), the T/C (dose: 25.0 mg/kg/injection, schedule: Q01DX009 (ip), vehicle: saline + alcohol) is reported as 91 % of control, the T/C (dose: 50.0 mg/kg/injection, schedule: Q01DX009 (ip), vehicle: saline + alcohol) is reported as 112 % of control and the T/C (dose: 100.0 mg/kg/injection, schedule: Q01DX009 (ip), vehicle: saline + alcohol) is reported as 112 % of control.
In the case of CC(=O)OCC(CO)(CO)CO, the T/C [1] is reported as 100 % of control, the T/C [2] is reported as 100 % of control and the T/C [3] is reported as 100 % of control.
With C/C=C/C=C/C(=O)c1ccc(OC)cc1O the T/C (dose: 50.0 mg/kg/injection, schedule: Q01DX009 (ip), vehicle: saline with Tween-80) was 109 % of control and the T/C [4] was 109 % of control.
With Cc1c(N)nc(C(CC(N)=O)NCC(N)C(N)=O)nc1C(=O)NC(C(=O)NC(C)C(O)C(C)C(=O)NC(C(=O)NCCc1nc(-c2nc(C(=O)NCCC[S+](C)C)cs2)cs1)C(C)O)C(OC1OC(CO)C(O)C(O)C1OC1OC(CO)C(O)C(OC(N)=O)C1O)c1cnc[nH]1 (stereo unspecified) the T/C (dose: 0.5 mg/kg/injection, schedule: Q01DX009 (ip), vehicle: saline) was 115 % of control, the T/C (dose: 1.0 mg/kg/injection, schedule: Q01DX009 (ip), vehicle: saline) was 115 % of control and 116 % of control and the T/C (dose: 2.0 mg/kg/injection, schedule: Q01DX009 (ip), vehicle: saline) was 120 % of control. The T/C (dose: 8.0 mg/kg/injection, schedule: Q01DX009 (ip), vehicle: saline) was 163 % of control, the T/C (dose: 16.0 mg/kg/injection, schedule: Q01DX009 (ip), vehicle: saline) was 90 % of control and 93 % of control and 118 % of control and the T/C (dose: 32.0 mg/kg/injection, schedule: Q01DX009 (ip), vehicle: saline) was 100 % of control.
CN(C)c1ccc(/C=C/c2nccc3ccccc23)cc1 was tested, and the T/C (dose: 0.78 mg/kg/injection, schedule: Q01DX009 (ip), vehicle: saline with Tween-80) was 114 % of control, the T/C (dose: 1.56 mg/kg/injection, schedule: Q01DX009 (ip), vehicle: saline with Tween-80) was 112 % of control and the T/C (dose: 3.13 mg/kg/injection, schedule: Q01DX009 (ip), vehicle: saline with Tween-80) was 102 % of control. For the same molecule, the T/C (dose: 6.25 mg/kg/injection, schedule: Q01DX009 (ip), vehicle: saline with Tween-80) was 107 % of control and 110 % of control.
With CCN(CC)C(=O)Cn1cc(F)c(NC(C)=O)nc1=O the T/C [4] was 90 % of control, the T/C [1] was 95 % of control and the T/C (dose: 200.0 mg/kg/injection, schedule: Q01DX009 (ip), vehicle: saline with Tween-80) was 105 % of control. For the same molecule, the T/C [2] was 109 % of control, the T/C [5] was 110 % of control and the T/C [3] was 113 % of control.
In the case of CC1(C)COC(c2ccc(CC(Cc3ccc(C4(C(C)(C)C)OCC(C)(C)CO4)cc3)C(=O)O)cc2)(C(C)(C)C)OC1, the T/C (dose: 50.0 mg/kg/injection, schedule: Q01DX005 (ip), vehicle: saline with Tween-80) is reported as 86 % of control, the T/C (dose: 100.0 mg/kg/injection, schedule: Q01DX005 (ip), vehicle: saline with Tween-80) is reported as 93 % of control and the T/C (dose: 200.0 mg/kg/injection, schedule: Q01DX005 (ip), vehicle: saline with Tween-80) is reported as 96 % of control.
For COc1c2c(c(OC(C)=O)c3c1C(=O)c1ccccc1C3=O)CCCC2, the T/C (dose: 6.25 mg/kg/injection, schedule: Q01DX001 (ip), vehicle: saline) was 115 % of control, the T/C (dose: 12.5 mg/kg/injection, schedule: Q01DX001 (ip), vehicle: saline) was 115 % of control and the T/C (dose: 25.0 mg/kg/injection, schedule: Q01DX001 (ip), vehicle: saline) was 115 % of control. For the same molecule, the T/C (dose: 50.0 mg/kg/injection, schedule: Q01DX001 (ip), vehicle: saline) was 115 % of control and the T/C (dose: 100.0 mg/kg/injection, schedule: Q01DX001 (ip), vehicle: saline) was 115 % of control.
For CC1CC(N)=NC1C(=O)NCCC#N (stereo unspecified), the T/C [4] was 98 % of control and the T/C [5] was 98 % of control.
